# Legend:
# Format in all cases: cell-based
# [1] = tested on: Enterococcus faecalis (EFA); assay: MIC, two-fold agar dilution (CLSI), clinical isolates
# Summary of the method: (§1)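 Following the American Clinical and Laboratory Standards Institute procedure, agar two-fold dilution served to determine minimum inhibitory concentrations.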
# [2] = tested on: Enterococcus faecium (EFM); assay: as above
# Summary of the method: as §1
# [3] = tested on: Escherichia coli (including ESBLs, non-ESBLs); assay: as above
# Summary of the method: as §1
# [4] = tested on: Moraxella catarrhalis (BCA); assay: as above
# Summary of the method: as §1
# [5] = tested on: Streptococcus pneoumoniae (SPN); assay: as above
# Summary of the method: as §1
# [6] = tested on: methicillin-resistant Staphylococcus aureus (MRSA); assay: as above
# Summary of the method: as §1
# [7] = tested on: methicillin-resistant Staphylococcus epidermidis (MRSE); assay: as above
# Summary of the method: as §1
# [8] = tested on: methicillin-sensitive Staphylococcus aureus (MSSA); assay: as above
# Summary of the method: as §1
# [9] = tested on: methicillin-sensitive Staphylococcus epidermidis (MSSE); assay: as above
# Summary of the method: as §1
# [10] = tested on: HCT-116 colorectal cancer cell line; assay: CCK-8 proliferation inhibition; conditions: Homo sapiens, HCT-116, 72 h, concentration of 30 μM; 72 hours; CCK-8; read-out: HCT116 inhibition rate/%
# Summary of the method: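 Cells were plated overnight at 2000 cells/well, then compound in culture medium was added at a range of final concentrations. After 72 hours in a CO2 incubator, medium was replaced with 1:10 CCK-8 solution for the read-out.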
structure (smiles),measurement,setting,value
"CCCC[C@H](CC(=O)NO)C(=O)N1CC2(CC2)C[C@H]1C(=O)Nc1ncco1 [Example 53, (S)-5-((R)-2-(2-(hydroxyamino)-2-oxoethyl)hexanoyl)-N-(oxazol-2-yl)-5-azaspiro[2.4]heptane-6-carboxamide]","Anti-bacterial activity (MIC), strain EFA 15-1",[1]; clinical isolate EFA 15-1,> 32 µg/mL
same,"Anti-bacterial activity (MIC), strain EFA 15-2",[1]; clinical isolate EFA 15-2,> 32 µg/mL
same,"Anti-bacterial activity (MIC), strain EFA 15-3",[1]; clinical isolate EFA 15-3,> 32 µg/mL
same,"Anti-bacterial activity (MIC), strain EFA 15-4",[1]; clinical isolate EFA 15-4,> 32 µg/mL
same,"Anti-bacterial activity (MIC), strain EFA 15-5",[1]; clinical isolate EFA 15-5,> 32 µg/mL
same,"Anti-bacterial activity (MIC), strain EFA 15-6",[1]; clinical isolate EFA 15-6,> 32 µg/mL
same,"Anti-bacterial activity (MIC), strain EFA 15-9",[1]; clinical isolate EFA 15-9,> 32 µg/mL
same,"Anti-bacterial activity (MIC), strain EFM 15-1",[2]; clinical isolate EFM 15-1,> 32 µg/mL
same,"Anti-bacterial activity (MIC), strain EFM 15-2",[2]; clinical isolate EFM 15-2,> 32 µg/mL
same,"Anti-bacterial activity (MIC), strain EFM 15-3",[2]; clinical isolate EFM 15-3,> 32 µg/mL
same,"Anti-bacterial activity (MIC), strain EFM 15-4",[2]; clinical isolate EFM 15-4,> 32 µg/mL
same,"Anti-bacterial activity (MIC), strain EFM 15-5",[2]; clinical isolate EFM 15-5,32 µg/mL
same,"Anti-bacterial activity (MIC), strain EFM 15-6",[2]; clinical isolate EFM 15-6,32 µg/mL
same,"Anti-bacterial activity (MIC), strain ECO+ 15-1",[3]; clinical isolate ECO+ 15-1,> 32 µg/mL
same,"Anti-bacterial activity (MIC), strain ECO+ 15-2",[3]; clinical isolate ECO+ 15-2,> 32 µg/mL
same,"Anti-bacterial activity (MIC), strain ECO+ 15-3",[3]; clinical isolate ECO+ 15-3,> 32 µg/mL
same,"Anti-bacterial activity (MIC), strain ECO+ 15-4",[3]; clinical isolate ECO+ 15-4,> 32 µg/mL
same,"Anti-bacterial activity (MIC), strain ECO− 15-1",[3]; clinical isolate ECO− 15-1,> 32 µg/mL
same,"Anti-bacterial activity (MIC), strain ECO− 15-2",[3]; clinical isolate ECO− 15-2,> 32 µg/mL
same,"Anti-bacterial activity (MIC), strain ECO− 15-3",[3]; clinical isolate ECO− 15-3,> 32 µg/mL
same,"Anti-bacterial activity (MIC), strain ECO− 15-4",[3]; clinical isolate ECO− 15-4,> 32 µg/mL
same,"Anti-bacterial activity (MIC), strain BCA 14-1",[4]; clinical isolate BCA 14-1,> 32 µg/mL
same,"Anti-bacterial activity (MIC), strain BCA 14-4",[4]; clinical isolate BCA 14-4,> 32 µg/mL
same,"Anti-bacterial activity (MIC), strain BCA 14-5",[4]; clinical isolate BCA 14-5,> 32 µg/mL
same,"Anti-bacterial activity (MIC), strain BCA 14-6",[4]; clinical isolate BCA 14-6,> 32 µg/mL
same,"Anti-bacterial activity (MIC), strain BCA 14-7",[4]; clinical isolate BCA 14-7,> 32 µg/mL
same,"Anti-bacterial activity (MIC), strain BCA 14-8",[4]; clinical isolate BCA 14-8,> 32 µg/mL
same,"Anti-bacterial activity (MIC), strain BCA 14-10",[4]; clinical isolate BCA 14-10,> 32 µg/mL
same,"Anti-bacterial activity (MIC), strain SPN 16-2",[5]; clinical isolate SPN 16-2,32 µg/mL
same,"Anti-bacterial activity (MIC), strain SPN 16-4",[5]; clinical isolate SPN 16-4,32 µg/mL
same,"Anti-bacterial activity (MIC), strain MRSA 15-1",[6]; clinical isolate MRSA 15-1,16 µg/mL
same,"Anti-bacterial activity (MIC), strain MRSA 15-2",[6]; clinical isolate MRSA 15-2,> 32 µg/mL
same,"Anti-bacterial activity (MIC), strain MRSA 15-3",[6]; clinical isolate MRSA 15-3,16 µg/mL
same,"Anti-bacterial activity (MIC), strain MRSA 15-4",[6]; clinical isolate MRSA 15-4,> 32 µg/mL
same,"Anti-bacterial activity (MIC), strain MRSE 15-1",[7]; clinical isolate MRSE 15-1,> 32 µg/mL
same,"Anti-bacterial activity (MIC), strain MRSE 15-2",[7]; clinical isolate MRSE 15-2,> 32 µg/mL
same,"Anti-bacterial activity (MIC), strain MRSE 15-3",[7]; clinical isolate MRSE 15-3,> 32 µg/mL
same,"Anti-bacterial activity (MIC), strain MRSE 15-7",[7]; clinical isolate MRSE 15-7,> 32 µg/mL
same,"Anti-bacterial activity (MIC), strain MSSA 15-3",[8]; clinical isolate MSSA 15-3,> 32 µg/mL
same,"Anti-bacterial activity (MIC), strain MSSA 15-4",[8]; clinical isolate MSSA 15-4,> 32 µg/mL
same,"Anti-bacterial activity (MIC), strain MSSA 15-5",[8]; clinical isolate MSSA 15-5,> 32 µg/mL
same,"Anti-bacterial activity (MIC), strain MSSA 15-6",[8]; clinical isolate MSSA 15-6,> 32 µg/mL
same,"Anti-bacterial activity (MIC), strain MSSE 15-3",[9]; clinical isolate MSSE 15-3,> 32 µg/mL
same,"Anti-bacterial activity (MIC), strain MSSE 15-4",[9]; clinical isolate MSSE 15-4,> 32 µg/mL
same,"Anti-bacterial activity (MIC), strain MSSE 15-5",[9]; clinical isolate MSSE 15-5,> 32 µg/mL
same,"Anti-bacterial activity (MIC), strain MSSE 15-6",[9]; clinical isolate MSSE 15-6,> 32 µg/mL
same,inhibition at 30 µM,[10],-18%

# From US10738028B2, “Spiro three-membered ring, spiro five-membered ring peptide deformylase inhibitor and use thereof in antibacteria and anti-tumor” (priority 2016, dated 2020)
